From patent US8445509B2, “Fused heterocyclic derivatives and use thereof” (Takeda Pharmaceutical Company Limited, priority 2008, dated 2013)

Legend:
[1] = target: T1, VEGFR2 intracellular domain protein (Homo sapiens, UniProt P35968); test: Vascular endothelial growth factor receptor 2 (VEGFR2) kinase inhibitory activity (AlphaScreen); type: biochemical
T1 construct: made in house; host or cells: SF-21 insect cells, recombinant baculovirus BAC-VEGFR2
Experimental: Human vascular endothelial growth factor receptor 2 (hereinafter to be referred to as VEGFR2) gene was cloned by PCR using cDNA Libraries Human Placenta (Clontech) as a template. […] The primer base sequence is shown below.
SF-21 cells were sown at 1×10^6 cells/mL to Sf-900II SFM medium (1 L, Invitrogen) containing 10% fetal bovine serum (trace), 50 mg/L Gentamicin (Invitrogen) and 0.1% Pluronic F-68 (Invitrogen), and shaking culture was performed using a 2 L volume Erlenmeyer flask at 27° C., 100 rpm. After culturing for 24 hrs, recombinant baculovirus BAC-VEGFR2 (13.4 mL) was added to the mixture, and the mixture was further cultured for 3 days. The culture medium was centrifuged at 2,000 rpm for 5 min to give virus-infected cells. The infected cells were washed with a phosphate buffered saline (Invitrogen), centrifuged under the same conditions, and the cells were preserved at −80° C. The cryopreserved cells were thawed in ice, suspended in buffer A (50 mM Tris buffer (30 mL, pH 7.4) containing 20% glycerol, 0.15 M NaCl) supplemented with Complete Protease Inhibitor (Boehringer), and ruptured 3 times with a Polytron homogenizer (Kinematica) at 20,000 rpm for 30 sec. The ruptured medium was clarified by centrifugation at 40,000 rpm for 30 min and filtered with a 0.45 μm filter. The filtrate was passed through a column packed with Anti-FLAG M2 Affinity Gel (4 mL, Sigma) at a flow rate of about 0.5 mL/min. The column was washed with buffer A, and eluted with buffer A containing 100 μg/mL of FLAG peptide. The eluate was concentrated with Vivaspin 20 (Vivascience) having a molecular weight cut off of 30K. The buffer of this concentrate was exchanged using NAP™ 25 column (Amersham Bioscience) equilibrated with buffer A. The fractions containing intracellular domain protein of VEGFR2 were collected, glycerol was added to the final concentration of 50% and cryopreserved at −80° C.
A test compound dissolved in dimethyl sulfoxide (DMSO) was diluted with a buffer (50 mM Tris-HCl (pH 7.5), 5 mM MgCl2, 5 mM MnCl2, 2 mM dithiothreitol, 0.01% Tween-20). To this compound solution (5 μL) was added a buffer (10 μL) containing 50 ng/mL of VEGFR2 intracellular domain protein and 250 ng/mL of biotin labeled polypeptide biotinyl-poly-Glu:Tyr (4:1) (CIS bio International). […] The reaction solution was allowed to stand at 25° C. for 16 hrs, and the wells were counted using a plate reader (Fusion™ (PerkinElmer)). The kinase inhibitory rate (%) of the test compound was calculated by the following formula: Inhibitory rate (%)=(1−(count of test compound−blank)÷(control−blank))×100
(§1) The count of the solution reacted without addition of the compound was used as a “control”, and the count of the solution without the compound and ATP was used as a “blank”.

[2] = system: Human blood cell cancer cell line MV-4-11; test: Human blood cell cancer cell line MV-4-11 growth inhibitory test; type: cell-based; conditions: MV4-11, 72 h, culture for 3 days; for inhibition at 1 µM: 1 μM test substance, read-out: inhibitory rate (%) at 1 μM
Experimental: Human blood cell cancer cell line MV-4-11 (ATCC) was cultured in IMDM (Invitrogen) containing 10% bovine fetal serum in an incubator at 37° C., 5% CO2. MV-4-11 cells were treated with trypsin/EDTA and recovered. The cells were suspended in IMDM containing 10% bovine fetal serum, plated on a 96 well flat bottom plate at a cells density of 30,000 cells/50 μL per well. After culturing overnight, various concentrations of test substance were dissolved in IMDM containing 10% bovine fetal serum and added to each well by 50 μL. After culture for 3 days, a Cell counting kit-8 reagent (DOJINDO LABORATORIES) was added to each well by 10 μL, and reacted in an incubator at 37° C., 5% CO2 for 2-3 hr. After the reaction, the absorbance of each well at 450 nm was measured by a microtiter plate reader. The concentration of a test substance necessary for inhibiting the growth by 50% (IC50 value) was calculated using a cell proliferation rate with addition of the test substance at each concentration and according to the nonlinear regression analysis using GraphPad Prism [Sigmoidal dose response (variable slope)].

[3] = target: T2, Tie2 intracellular domain protein (Homo sapiens, UniProt Q02763); test: TIE2 kinase inhibitory activity (AlphaScreen); type: biochemical
T2 construct: 50 ng/mL of Tie2 intracellular domain protein (Millipore); purchased Millipore
Experimental: A test compound dissolved in dimethyl sulfoxide (DMSO) was diluted with a buffer (50 mM Tris-HCl (pH 7.5), 5 mM MgCl2, 5 mM MnCl2, 2 mM dithiothreitol, 0.01% Tween-20). A buffer (10 μL) containing 50 ng/mL of Tie2 intracellular domain protein (Millipore) and 250 ng/ml, of biotin labeled polypeptide biotinyl-poly-Glu:Tyr (4:1) (CIS bio International) was added to the compound solution (5 μL). At 5 min from the mixing of the kinase enzyme, the compound and the biotin labeled polypeptide, a buffer (10 μL) containing 5 μM ATP was added, and the mixture was reacted at 25° C. for 10 min. The reaction was quenched by the addition of 25 μL of a stop solution (100 mM EDTA disodium salt, 62.5 mM HEPES buffer (pH 7.4), 250 mM NaCl, 0.1% bovine serum albumin, 10 μg/ml AlphaScreen assay streptavidin donor beads (Streptavidin Donor beads: PerkinElmer), 10 μg/ml, AlphaScreen assay anti-phosphotyrosine recognition antibody PT-66 binding acceptor beads (Anti-phosphotyrosine (PT-66) Acceptor beads: PerkinElmer)). The reaction solution was allowed to stand at 25° C. for 16 hrs, and the […] were counted using a plate reader (Fusion™ (PerkinElmer)). The kinase inhibitory rate (%) of the test compound was calculated by the following formula: Inhibitory rate (%)=(1−(count of test compound−blank)÷(control−blank))×100
as §1

T1 sequence (P35968 786-1356 limits assumed): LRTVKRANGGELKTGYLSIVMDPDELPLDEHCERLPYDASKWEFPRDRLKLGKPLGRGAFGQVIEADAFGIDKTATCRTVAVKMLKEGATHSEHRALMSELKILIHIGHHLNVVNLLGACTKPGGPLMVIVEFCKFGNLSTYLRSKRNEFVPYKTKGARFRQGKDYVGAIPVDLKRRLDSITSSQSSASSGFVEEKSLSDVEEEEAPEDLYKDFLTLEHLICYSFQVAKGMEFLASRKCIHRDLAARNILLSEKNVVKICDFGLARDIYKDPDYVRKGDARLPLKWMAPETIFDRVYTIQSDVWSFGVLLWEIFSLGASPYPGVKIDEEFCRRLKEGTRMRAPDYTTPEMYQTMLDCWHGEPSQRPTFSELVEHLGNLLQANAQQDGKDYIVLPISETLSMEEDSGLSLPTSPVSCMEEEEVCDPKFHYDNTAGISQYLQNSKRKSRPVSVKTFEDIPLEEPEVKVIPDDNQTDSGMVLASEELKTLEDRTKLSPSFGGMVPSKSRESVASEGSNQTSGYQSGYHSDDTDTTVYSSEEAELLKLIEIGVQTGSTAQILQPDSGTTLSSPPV
T2 sequence (Q02763 770-1124 limits assumed): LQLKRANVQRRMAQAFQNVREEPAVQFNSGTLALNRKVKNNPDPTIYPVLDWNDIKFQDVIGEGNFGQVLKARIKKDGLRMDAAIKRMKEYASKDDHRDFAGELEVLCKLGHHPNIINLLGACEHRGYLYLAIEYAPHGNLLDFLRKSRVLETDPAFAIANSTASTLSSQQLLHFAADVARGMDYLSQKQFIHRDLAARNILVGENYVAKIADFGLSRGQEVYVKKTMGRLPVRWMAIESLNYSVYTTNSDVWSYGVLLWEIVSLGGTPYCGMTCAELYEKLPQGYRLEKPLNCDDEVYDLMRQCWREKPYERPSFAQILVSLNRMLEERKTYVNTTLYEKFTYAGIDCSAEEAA

| IC50 [1] | IC50 [2] | IC50 [3] | inhibition at 1 µM ([3]; 1 μM test compound, read-out: inhibitory rate (%) at 1 μM) | SMILES | inhibition at 1 µM [2] |
| --- | --- | --- | --- | --- | --- |
| ≤ 1000 nM | ≤ 1000 nM | ≤ 1000 nM | – | CC1=C(c2ccc(F)cc2)C(=O)N(C(=O)Nc2ccc(Oc3ccc4nc(NC(=O)C5CC5)cn4c3)c(F)c2)CC1 [Example 81, N-[4-({2-[(cyclopropylcarbonyl)amino]imidazo[1,2-a]pyridin-6-yl}oxy)-3-fluorophenyl]-5-(4-fluorophenyl)-4-methyl-6-oxo-3,6-dihydropyridine-1(2H)-carboxamide] | ≥ 90% |
| ≤ 1000 nM | ≤ 1000 nM | ≤ 1000 nM | – | Cc1cc(C)n(-c2ccc(F)cc2)c(=O)c1C(=O)Nc1ccc(Oc2ccc3nc(NC(=O)C4CC4)cn3c2)c(F)c1 [Example 82, N-[4-({2-[(cyclopropylcarbonyl)amino]imidazo[1,2-a]pyridin-6-yl}oxy)-3-fluorophenyl]-1-(4-fluorophenyl)-4,6-dimethyl-2-oxo-1,2-dihydropyridine-3-carboxamide] | ≥ 90% |
| ≤ 1000 nM | ≤ 1000 nM | – | – | Cc1ccc(C(=O)Nc2ccc(Oc3ccc4nc(NC(=O)C5CC5)cn4c3)c(F)c2)c(=O)n1-c1ccc(F)cc1.Cl [Example 32, N-[4-({2-[(cyclopropylcarbonyl)amino]imidazo[1,2-a]pyridin-6-yl}oxy)-3-fluorophenyl]-1-(4-fluorophenyl)-6-methyl-2-oxo-1,2-dihydropyridine-3-carboxamide hydrochloride] | ≥ 90% |
| ≤ 1000 nM | ≤ 1000 nM | ≤ 1000 nM | – | Cc1c(C(=O)Nc2ccc(Oc3ccc4nc(NC(=O)C5CC5)cn4c3)c(F)c2)c(=O)n(-c2ccccc2)n1C [Example 46, N-[4-({2-[(cyclopropylcarbonyl)amino]imidazo[1,2-a]pyridin-6-yl}oxy)-3-fluorophenyl]-1,5-dimethyl-3-oxo-2-phenyl-2,3-dihydro-1H-pyrazole-4-carboxamide] | ≥ 90% |
| ≤ 1000 nM | ≤ 1000 nM | ≤ 1000 nM | – | O=C(Nc1cn2cc(Oc3ccc(NC(=O)C4(C(=O)Nc5ccc(F)cc5)CC4)cc3F)ccc2n1)C1CC1 [Example 11, N-[4-({2-[(cyclopropylcarbonyl)amino]imidazo[1,2-a]pyridin-6-yl}oxy)-3-fluorophenyl]-N′-(4-fluorophenyl)cyclopropane-1,1-dicarboxamide] | ≥ 90% |
| ≤ 1000 nM | ≤ 1000 nM | ≤ 1000 nM | ≥ 50% | O=C(Nc1cn2cc(Oc3ccc(NC(=O)N4CCN(c5ccc(F)cc5)C4=O)cc3F)ccc2n1)C1CC1 [Example 53, N-[4-({2-[(cyclopropylcarbonyl)amino]imidazo[1,2-a]pyridin-6-yl}oxy)-3-sfluorophenyl]-3-(4-fluorophenyl)-2-oxoimidazolidine-1-carboxamide] | ≥ 90% |
| ≤ 1000 nM | ≤ 1000 nM | ≤ 1000 nM | – | O=C(Nc1ccc(Oc2ccc3nc(NC(=O)C4CC4)cn3c2)c(F)c1)c1cccn(-c2ccc(F)cc2)c1=O [Example 10, N-[4-({2-[(cyclopropylcarbonyl)amino]imidazo[1,2-a]pyridin-6-yl}oxy)-3-fluorophenyl]-1-(4-fluorophenyl)-2-oxo-1,2-dihydropyridine-3-carboxamide] | ≥ 90% |
| ≤ 1000 nM | ≤ 1000 nM | ≤ 1000 nM | – | Cc1c(C(=O)Nc2ccc(Oc3ccc4nc(NC(=O)C5CC5)cn4c3)c(F)c2)c(=O)n(-c2ccc(F)cc2)n1C [Example 77, N-[4-({2-[(cyclopropylcarbonyl)amino]imidazo[1,2-a]pyridin-6-yl}oxy)-3-fluorophenyl]-2-(4-fluorophenyl)-1,5-dimethyl-3-oxo-2,3-dihydro-1H-pyrazole-4-carboxamide] | ≥ 90% |
